This note sets out measurements from patent US6365201B1, “Phytodrug for management of peptic ulcer and methods of preparing and using same” (National Institute for Pharmaceutical Research and …, priority 1997, dated 2002).

For this experiment, the system named is small intestinal transit. As to the kind of experiment: Small intestinal transit in mice, charcoal meal method. It counts as in vivo. To be noted: reference, dose not given. On the procedure:
Drugs that delay the small intestinal transit time have beneficial effects on ulcer patients. The effect of the Indigofera […] extract on small intestinal transit in mice was tested using the charcoal meal method.

Each structure is given as a SMILES string.

Take `NC[C@H](O)c1ccc(O)c(O)c1` [Noradrenaline]: the “% distance traveled” value is on record as 64.6 ± 9.0% and the “% inhibition” value was 35.4%.
